Here are results for 17 compounds from PubChem BioAssay (NCI).

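Protocol summary: plate cells (96-well), add compound at 5 concentrations, incubate 48 h, interpolate endpoints linearly. Definition used: TGI = concentration required for complete inhibition of growth.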

Some test systems named below: DLD-1 colon; HOP-18 NSCLC; LXFL 529 NSCLC; RXF-631 renal; XF 498 CNS.
What all share (test): NCI tumour cell line growth inhibition, 48 h

As for `CC(NC(=O)/C(C#N)=C/c1ccc2[nH]ccc2c1)c1ccccc1` (stereo unspecified), the TGI with DLD-1 colon turned out to be 34.5 µM; in the test on HOP-18 NSCLC, 53.3 µM; in the test with LXFL 529 NSCLC it was 41.4 µM.

In the case of `NC(=O)c1csc(CCCCCCc2nc(C(N)=O)cs2)n1`, the TGI in the test on DLD-1 colon, with HOP-18 NSCLC, in the test with LXFL 529 NSCLC and in the test with RXF-631 renal was > 100 µM each time.

As for `CC(=O)c1c(O)ccc2c1CC(CC=O)O2` (stereo unspecified), the TGI with DLD-1 colon, in the test on LXFL 529 NSCLC, in the test with RXF-631 renal and with XF 498 CNS was > 100 µM each time.

On to `O=C(O)c1cc(-c2ccccc2O)nc2ccccc12`, for which the TGI with DLD-1 colon, with HOP-18 NSCLC, in the test with LXFL 529 NSCLC and in the test on XF 498 CNS was > 100 µM in each case.

For the compound `COC(=O)[C@H]1C=C[C@@H](C)n2c(=O)c3ccccc3c(=O)n21`, the TGI with DLD-1 colon, in the test with LXFL 529 NSCLC and in the test with XF 498 CNS was > 100 µM in each case.

Turning to `C=C1CC2(OC1=O)c1ccccc1C=Cc1ccccc12`, the TGI with DLD-1 colon stood at 3.76 µM; with HOP-18 NSCLC, 27.4 µM; with LXFL 529 NSCLC, 7.14 µM; in the test on RXF-631 renal it was 33.1 µM; with XF 498 CNS, 26.5 µM.

Regarding `O=C1C(Cl)C(c2ccc(Cl)cc2)N1n1cnc2ccccc2c1=O` (stereo unspecified), the TGI in the test with DLD-1 colon, in the test with HOP-18 NSCLC, in the test with LXFL 529 NSCLC and in the test on XF 498 CNS was > 100 µM in each case.

Turning to `CN(C)CCCSc1c2ccccc2nc2cc(NCC(=O)Nc3ccccc3-c3ccccc3NC(=O)CNc3ccc4c(SCCCN(C)C)c5ccccc5nc4c3)ccc12`, the TGI with DLD-1 colon, in the test with HOP-18 NSCLC, in the test with LXFL 529 NSCLC and in the test with XF 498 CNS was > 100 µM each time.

For the compound `CCOC(=O)c1nc2ccc(Cl)cc2c2c1CCO2`, the TGI in the test on DLD-1 colon, with HOP-18 NSCLC, in the test on LXFL 529 NSCLC and with XF 498 CNS was > 100 µM throughout.

Consider `COc1ccc(C2CCC(Cl)(OC)CC2C=O)cc1` (stereo unspecified), for which the TGI in the test on DLD-1 colon, in the test on HOP-18 NSCLC and in the test with LXFL 529 NSCLC was > 100 µM each time.

For `NC12CC3CC(C1)CC(Cl)(C3)C2`, the TGI with DLD-1 colon, with LXFL 529 NSCLC, with RXF-631 renal and in the test with XF 498 CNS was > 100 µM in each case.

As to `Cc1nccc2c1cnc1ccnn12`, the TGI in the test with DLD-1 colon, in the test on LXFL 529 NSCLC and in the test with RXF-631 renal was > 100 µM in each case.

As to `CCOC(OCC)c1ccc(/C=C/c2cc(OC)c(OC)c(OC)c2)cc1`, the TGI in the test on DLD-1 colon was 38.8 µM; in the test with HOP-18 NSCLC it was > 100 µM; in the test on LXFL 529 NSCLC, 41.7 µM; in the test on RXF-631 renal it was 70.7 µM.

For `COc1ccc(-c2onc(-c3c(C)cc(C)cc3C)c2C2=NCCCN2)cc1`, the TGI with DLD-1 colon, in the test with HOP-18 NSCLC, in the test with LXFL 529 NSCLC, with RXF-631 renal and with XF 498 CNS was > 100 µM in each case.

For the compound `C/C(=N\NS(=O)(=O)c1ccc(C)cc1)C(CN(C)C)C(c1ccccc1)c1c(O)c2ccccc2oc1=O` (stereo unspecified), the TGI in the test with DLD-1 colon, with HOP-18 NSCLC, with LXFL 529 NSCLC, in the test with RXF-631 renal and in the test on XF 498 CNS was > 100 µM throughout.

As for `CC(=O)OC1OC2C(NC(=O)OC(C)(C)C)C1CC2(OCc1ccccc1)OCc1ccccc1` (stereo unspecified), the TGI with HOP-18 NSCLC is 46.5 µM; in the test on LXFL 529 NSCLC, > 100 µM; in the test with RXF-631 renal, > 100 µM; in the test on XF 498 CNS, 41.9 µM.

Consider `COc1ccc(/C=C2\N=C(c3ccccc3)N(Nc3nnc(NN4C(=O)/C(=C/c5ccc(OC)cc5)N=C4c4ccccc4)c4ccccc34)C2=O)cc1`, for which the TGI in the test with DLD-1 colon, with HOP-18 NSCLC and with LXFL 529 NSCLC was > 100 µM in each case.
